Measurements as given in patent US11046680B1, “Heteroaryl-substituted triazoles as APJ receptor agonists” (priority 2016, dated 2021).

Each molecule was assayed against human APJ receptor (Homo sapiens (Human), UniProt P35414) (assay: biochemical). Settings: [35S]GTPγS binding, CHO membranes expressing human APJ receptor; read-out: Activity hAPJ SPA EC50 IP.
Assay type: biochemical
Procedure, shortened: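 Membranes of a stable CHO line carrying human APJ (pFLAG-CMV-3) were used in a GTPγS binding format; buffer GDP, MgCl2 and NaCl were optimized, and plates were read after 90 min at RT.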

Sequence of human APJ receptor (P35414 whole entry): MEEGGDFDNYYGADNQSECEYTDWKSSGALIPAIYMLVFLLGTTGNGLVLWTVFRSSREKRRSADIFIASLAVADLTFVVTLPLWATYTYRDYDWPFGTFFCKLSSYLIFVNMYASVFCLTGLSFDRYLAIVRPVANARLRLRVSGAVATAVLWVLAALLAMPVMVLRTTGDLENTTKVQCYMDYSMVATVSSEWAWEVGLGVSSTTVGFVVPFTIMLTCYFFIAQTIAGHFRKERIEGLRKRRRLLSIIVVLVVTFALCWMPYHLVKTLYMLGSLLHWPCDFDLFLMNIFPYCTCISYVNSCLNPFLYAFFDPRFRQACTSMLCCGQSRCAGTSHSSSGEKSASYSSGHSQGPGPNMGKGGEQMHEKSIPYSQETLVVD

Question: How did the EC50 turn out when `COc1cccc(OC)c1-n1c(NS(=O)(=O)[C@@H](C)[C@H](OC)c2ccc(C#N)cc2C#N)nnc1-c1ccn(C)n1` (mixture of isomers) [Example 264.0, (1S,2R)-1-(2,4-dicyanophenyl)-N-(4-(2,6-dimethoxyphenyl)-5-(1-methyl-1H-pyrazol-3-yl)-4H-1,2,4-triazol-3-yl)-1-methoxy-2-propanesulfonamide and (1R,2S)-1-(2,4-dicyanophenyl)-N-(4-(2,6-dimethoxyphenyl)-5-(1-methyl-1H-pyrazol-3-yl)-4H-1,2,4-triazol-3-yl)-1-methoxy-2-propanesulfonamide] was run?
Answer: The EC50 was 0.8 nM.

Question: How did the EC50 turn out when `COCC1(n2c(NS(=O)(=O)[C@@H](C)[C@H](OC)c3ncc(Cl)cn3)nnc2-c2cnn3ccccc23)CCC1` [Example 508.0] was run?
Answer: Its EC50 is 62 nM.

Question: With `CCO[C@H](c1ncc(C)cn1)[C@H](C)S(=O)(=O)Nc1nnc(-c2ccn(C(F)F)n2)n1-c1c(OC)cccc1OC` [Example 199.0, (1R,2S)-N-(5-(1-(difluoromethyl)-1H-pyrazol-3-yl)-4-(2,6-dimethoxyphenyl)-4H-1,2,4-triazol-3-yl)-1-ethoxy-1-(5-methyl-2-pyrimidinyl)-2-propanesulfonamide] as the molecule, how does the EC50 read?
Answer: The EC50 was 0.26 nM.

Question: How did the EC50 turn out when `COc1cccc(OC)c1-n1c(NS(=O)(=O)[C@@H](C)[C@H](OC)c2ncc(C)cn2)nnc1-c1nn(C)c2ccccc12` [Example 436.0, (1R,2S)-N-(4-(2,6-dimethoxyphenyl)-5-(1-methyl-1H-indazol-3-yl)-4H-1,2,4-triazol-3-yl)-1-methoxy-1-(5-methylpyrimidin-2-yl)propane-2-sulfonamide] was run?
Answer: The EC50 was 0.81 nM.

Question: With `COc1cccc(OC)c1-n1c(NS(=O)(=O)[C@H](C)Cc2ncc(F)cn2)nnc1-c1cc(C)no1` (single isomer, unassigned) [Example 63.0, (R)-N-(4-(2,6-dimethoxyphenyl)-5-(3-methylisoxazol-5-yl)-4H-1,2,4-triazol-3-yl)-1-(5-fluoropyrimidin-2-yl)propane-2-sulfonamide or (R)-N-(4-(2,6-dimethoxyphenyl)-5-(3-methylisoxazol-5-yl)-4H-1,2,4-triazol-3-yl)-1-(5-fluoropyrimidin-2-yl)propane-2-sulfonamide] as the molecule, how does the EC50 read?
Answer: The EC50 was 85 nM.

Question: For `COc1nccc(-c2nnc(NS(=O)(=O)[C@@H](C)[C@H](C)c3ncc(F)cn3)n2-c2c(OC)cccc2OC)n1` [Example 197.0, (2S,3R)-N-(4-(2,6-dimethoxyphenyl)-5-(2-methoxy-4-pyrimidinyl)-4H-1,2,4-triazol-3-yl)-3-(5-fluoro-2-pyrimidinyl)-2-butanesulfonamide], which EC50 is on record?
Answer: The EC50 was 2.4 nM.

Question: With `COc1cccc(OC)c1-n1c(NS(=O)(=O)[C@@H](C)[C@H](O)c2cn3ccccc3n2)nnc1-c1ccn(C)n1` (single isomer, unassigned) [Example 350.0, (1R,2S)-N-(4-(2,6-Dimethoxyphenyl)-5-(1-methyl-1H-pyrazol-3-yl)-4H-1,2,4-triazol-3-yl)-1-hydroxy-1-imidazo[1,2-a]pyridin-2-yl-2-propanesulfonamide or (1S,2R)-N-(4-(2,6-dimethoxyphenyl)-5-(1-methyl-1H-pyrazol-3-yl)-4H-1,2,4-triazol-3-yl)-1-hydroxy-1-imidazo[1,2-a]pyridin-2-yl-2-propanesulfonamide] as the molecule, how does the EC50 read?
Answer: Its EC50 is 6.1 nM.

Question: Which EC50 does the source give for `COc1cccc(OC)c1-n1c(NS(=O)(=O)[C@@H](C)[C@H](C)c2ncc(F)cn2)nnc1-c1cnn(C)c1` [Example 212.0, (2S,3R)-N-(4-(2,6-dimethoxyphenyl)-5-(1-methyl-1H-pyrazol-4-yl)-4H-1,2,4-triazol-3-yl)-3-(5-fluoro-2-pyrimidinyl)-2-butanesulfonamide] here?
Answer: Its EC50 is 0.42 nM.

Question: Which EC50 does the source give for `COc1cccc(OC)c1-n1c(NS(=O)(=O)[C@H](C)[C@@H](C)c2cnc(C)cn2)nnc1-c1ccn(C)n1` [Example 281.0, (2R,3S)-N-(4-(2,6-dimethoxyphenyl)-5-(1-methyl-1H-pyrazol-3-yl)-4H-1,2,4-triazol-3-yl)-3-(5-methyl-2-pyrazinyl)-2-butanesulfonamide] here?
Answer: The EC50 was 84 nM.

Question: How did the EC50 turn out when `CCn1ccc(-c2nnc(NS(=O)(=O)[C@@H](C)[C@@](O)(c3ncc(C)cn3)C(F)(F)F)n2-c2c(OC)cccc2OC)n1` [Example 390.0, (2S,3R)-N-(4-(2,6-Dimethoxyphenyl)-5-(1-ethyl-1H-pyrazol-3-yl)-4H-1,2,4-triazol-3-yl)-4,4,4-trifluoro-3-hydroxy-3-(5-methylpyrimidin-2-yl)butane-2-sulfonamide and (2S,3S)-N-(4-(2,6-dimethoxyphenyl)-5-(1-ethyl-H-pyrazol-3-yl)-4H-1,2,4-triazol-3-yl)-4,4,4-trifluoro-3-hydroxy-3-(5-methylpyrimidin-2-yl)butane-2-sulfonamide] was run?
Answer: Its EC50 is 73 nM.

Question: Which EC50 does the source give for `COc1cccc(OC)c1-n1c(NS(=O)(=O)[C@@H](C)[C@H](OC)c2ncc(Cl)cn2)nnc1-c1cncc(C)n1` [Example 214.0, (1R,2S)-1-(5-chloro-2-pyrimidinyl)-N-(4-(2,6-dimethoxyphenyl)-5-(6-methyl-2-pyrazinyl)-4H-1,2,4-triazol-3-yl)-1-methoxy-2-propanesulfonamide] here?
Answer: Its EC50 is 0.4 nM.

Question: For `COc1cccc(OC)c1-n1c(NS(=O)(=O)[C@@H](C)[C@H](O)c2ncc(C)cn2)nnc1-c1cc2n(n1)CCC2` [Example 220.0, (1R,2S)-N-(5-(5,6-dihydro-4H-pyrrolo[1,2-b]pyrazol-2-yl)-4-(2,6-dimethoxyphenyl)-4H-1,2,4-triazol-3-yl)-1-hydroxy-1-(5-methyl-2-pyrimidinyl)-2-propanesulfonamide], which EC50 is on record?
Answer: Its EC50 is 6.6 nM.

Question: For `COc1cccc(OC)c1-n1c(NS(=O)(=O)[C@@H](C)[C@H](OC)c2ncc(Cl)cn2)nnc1-c1cnn(C)c1C(C)C` [Example 501.0, (1R,2S)-1-(5-chloropyrimidin-2-yl)-N-(4-(2,6-dimethoxyphenyl)-5-(5-isopropyl-1-methyl-1H-pyrazol-4-yl)-4H-1,2,4-triazol-3-yl)-1-methoxypropane-2-sulfonamide], which EC50 is on record?
Answer: The EC50 was 9.3 nM.

Question: Which EC50 does the source give for `COc1cccc(OC)c1-n1c(NS(=O)(=O)C[C@H](O)c2ccc(F)cc2S(C)(=O)=O)nnc1-c1ccn(C)n1` (single isomer, unassigned) [Example 371.0, (R)-N-(4-(2,6-Dimethoxyphenyl)-5-(1-methyl-1H-pyrazol-3-yl)-4H-1,2,4-triazol-3-yl)-2-(4-fluoro-2-(methylsulfonyl)phenyl)-2-hydroxyethanesulfonamide or (S)-N-(4-(2,6-dimethoxyphenyl)-5-(1-methyl-1H-pyrazol-3-yl)-4H-1,2,4-triazol-3-yl)-2-(4-fluoro-2-(methylsulfonyl)phenyl)-2-hydroxyethanesulfonamide] here?
Answer: The EC50 was 2.2 nM.

Question: Which EC50 does the source give for `COc1cccc(OC)c1-n1c(NS(=O)(=O)[C@@H](C)[C@H](C)c2ncc(Cl)cn2)nnc1-c1ccn(C(F)F)n1` [Example 222.0, (2S,3R)-3-(5-chloro-2-pyrimidinyl)-N-(5-(1-(difluoromethyl)-1H-pyrazol-3-yl)-4-(2,6-dimethoxyphenyl)-4H-1,2,4-triazol-3-yl)-2-butanesulfonamide] here?
Answer: The EC50 was 0.11 nM.

Question: Which EC50 does the source give for `COc1ccc(N2CCC2=O)cc1-n1c(NS(=O)(=O)CCc2ccc(Cl)cc2)nnc1-c1cccs1` [Example 126.0, 2-(4-Chlorophenyl)-N-(4-(2-methoxy-5-(2-oxo-1-azetidinyl)phenyl)-5-(2-thiophenyl)-4H-1,2,4-triazol-3-yl)ethanesulfonamide] here?
Answer: Its EC50 is 11 nM.

Question: With `COc1cccc(OC)c1-n1c(NS(=O)(=O)[C@H](C)[C@@H](OC)c2ccc(C#N)cc2C#N)nnc1-c1ccn(C)n1` (single isomer, unassigned) [Example 266.0, (1S,2R)-1-(2,4-dicyanophenyl)-N-(4-(2,6-dimethoxyphenyl)-5-(1-methyl-1H-pyrazol-3-yl)-4H-1,2,4-triazol-3-yl)-1-methoxy-2-propanesulfonamide or (1R,2S)-1-(2,4-dicyanophenyl)-N-(4-(2,6-dimethoxyphenyl)-5-(1-methyl-H-pyrazol-3-yl)-4H-1,2,4-triazol-3-yl)-1-methoxy-2-propanesulfonamide] as the molecule, how does the EC50 read?
Answer: Its EC50 is 0.4 nM.

Question: How did the EC50 turn out when `COc1cccc(OC)c1-n1c(NS(=O)(=O)[C@@H](C)[C@H](OC)c2ncc(C)cn2)nnc1-c1noc(C)c1C` [Example 516.0] was run?
Answer: The EC50 was 18 nM.

Question: For `COCC1(n2c(NS(=O)(=O)[C@@H](C)[C@H](OC)c3ncc(Cl)cn3)nnc2-c2n[nH]c3c2CCC3)CCC1` [Example 489.0], which EC50 is on record?
Answer: The EC50 was 1.3 nM.

Question: How did the EC50 turn out when `CO[C@H](c1ncc(Cl)cn1)[C@H](C)S(=O)(=O)Nc1nnc(-c2noc3ccccc23)n1C1CC1` [Example 506.0, (1R,2S)-N-(5-(benzo[d]isoxazol-3-yl)-4-cyclopropyl-4H-1,2,4-triazol-3-yl)-1-(5-chloropyrimidin-2-yl)-1-methoxypropane-2-sulfonamide] was run?
Answer: Its EC50 is 260 nM.

Question: With `CCO[C@@H](c1ncc(Cl)cn1)[C@@H](C)S(=O)(=O)Nc1nnc(-c2ccn(C)n2)n1-c1c(OC)cccc1OC` (single isomer, unassigned) [Example 354.0, (1S,2R)-1-(5-chloropyrimidin-2-yl)-N-(4-(2,6-dimethoxyphenyl)-5-(1-methyl-1H-pyrazol-3-yl)-4H-1,2,4-triazol-3-yl)-1-ethoxypropane-2-sulfonamide or (1R,25)-1-(5-chloropyrimidin-2-yl)-N-(4-(2,6-dimethoxyphenyl)-5-(1-methyl-1H-pyrazol-3-yl)-4H-1,2,4-triazol-3-yl)-1-ethoxypropane-2-sulfonamide] as the molecule, how does the EC50 read?
Answer: The EC50 was 0.75 nM.

Question: With `COc1ncnc(OC)c1-n1c(NS(=O)(=O)[C@@H](C)[C@H](C)c2ccc(Cl)cn2)nnc1-c1cnn(C)c1` [Example 535.0, (2S,3R)-3-(5-chloro-2-pyridinyl)-N-(4-(4,6-dimethoxy-5-pyrimidinyl)-5-(1-methyl-1H-pyrazol-4-yl)-4H-1,2,4-triazol-3-yl)-2-butanesulfonamide] as the molecule, how does the EC50 read?
Answer: The EC50 was 0.66 nM.

Question: For `COc1cccc(OC)c1-n1c(NS(=O)(=O)[C@@H](C)[C@H](OC)c2ncc(Cl)cn2)nnc1-c1n[nH]c2ccc(Cl)cc12` [Example 422.0, (1R,2S)-N-(5-(5-chloro-1H-indazol-3-yl)-4-(2,6-dimethoxyphenyl)-4H-1,2,4-triazol-3-yl)-1-(5-chloropyrimidin-2-yl)-1-methoxypropane-2-sulfonamide], which EC50 is on record?
Answer: The EC50 was 6.2 nM.
